How the values were obtained:
[1] = system: PBMCs; test: XTT cytotoxicity test on PBMCs; type: cell-based; conditions: Homo sapiens, PBMC, 72 h (ESI: 96 h), viability, mean ± SD, read-out: Relative IC50 PBMCs (XTT)
Protocol: (§1) Table 3 presents the IC50 values obtained from the XTT test on PBMCs and the T-Jurkat cell line, using MPA and MMF as standards. These values indicate the concentration of each compound required to reduce the viability of PBMCs (healthy cells) and T-Jurkat cells (T-cell leukemia) by 50% compared to the control. Cells were treated with compounds for 72 h (PBMCs) or 48 h (T-Jurkat), followed by a colorimetric XTT test. The results are illustrated in ESI Fig. S2 as a viability curve in relation to concentration.
Biological evaluation — PBMC and T-Jurkat cells […]
(§2) Human peripheral blood mononuclear cells (PBMCs) were isolated from buffy coats provided by anonymous, healthy volunteers with an average age of 35±4 years during routine transfusion procedure. These samples were received by the Authors from the Regional Centre for Blood Donation and Treatment in Gdańsk (Poland). […]
(§3) solely for PBMCs isolation. PBMCs were suspended in a complete X-VIVO medium, consisting of X-VIVO20, 10% heat-inactivated human AB serum, penicillin (100 U/ml), and streptomycin ([…]).
(§4) MPA derivatives preparation
(§5) To achieve the desired concentrations of the tested compounds, the substances were first dissolved in DMSO to reach a final concentration of 0.01 M. The solutions were then diluted in the appropriate additive-free medium (RPMI-1640 for T-Jurkat cells and X-VIVO20 for PBMCs) to obtain […]
(§6) Peripheral blood mononuclear cells were isolated by gradient centrifugation, as described previously. Buffy coats were diluted with phosphate-buffered saline (PBS, pH = 7.4, ThermoFisher Scientific) in a 1:1 ratio, layered at Ficoll-Paque™ PLUS (VWR International), and centrifuged at 800 × g for 20 minutes. The PBMC layer was collected and washed twice with PBS (1st wash: 600 × g for 10 minutes; 2nd wash: 600 × g for 5 minutes). Cell amount and viability were assessed using the Bio-Rad TC20™ automated cell counter combined with trypan blue staining.
(§7) XTT dye-based in vitro cytotoxicity test
(§8) The cytotoxic effects of mycophenolic acid (MPA) derivatives were assessed using an in vitro XTT-based assay (Roche). PBMCs in complete X-VIVO20 medium and T-Jurkat cells in complete RPMI-1640 medium were seeded into 96-well plates at a concentration of 5∙10^5 cells/50 µl per well. 50 µl of tested compounds were added to the experimental wells to achieve final concentrations of 50, 25, 10, 5, 1, 0.1, and 0.01 µM. The background control consisted of the medium without cells, while untreated cells served as the positive control. After incubating for 48 hours for T-Jurkat cells and 96 hours for PBMCs in a humidified atmosphere with 5% CO2 at 37°C, 50 µl of freshly prepared XTT reagent was added to all wells according to the manufacturer's instructions. The plates were then incubated for an additional 24 hours under the same conditions. The conversion of the water-soluble yellow XTT tetrazolium salt to orange formazan was quantified by measuring the optical density (OD) at 450 nm using an Agilent BioTek Epoch Microplate Spectrophotometer (Agilent Technologies), with a reference wavelength of 690 nm. The results were expressed as IC50 values for compounds that […]
(§9) inhibited cell viability by more than 50%. […]
PBMCs were suspended in a 15 mL centrifuge tube at a concentration of 10-30 × 10⁶ cells in 1 mL of PBS, then, 2 μL of 1 mM VPD 450 dye solution was added, incubated for 15 min at 37°C, washed with a 9-fold volume of warm PBS and centrifuged at 400 x g for 5 min. Then, the cells were suspended in 10 mL of X-VIVO medium with 10% FBS and centrifuged again at 400 x g for 5 min. After suspending the cells in the complete medium, the staining level was checked using flow cytometry. The cells thus obtained were stimulated with anti-CD3/anti-CD28 antibodies as described previously (see VPD450 dye-based in vitro cell proliferation test). To perform the GMP test, a proper amount of GMP was added to each well to reach its final concentration of 50 μM, and then incubated for 72 hours. Proliferative […]

[2] = system: T-Jurkat cells; test: XTT cytotoxicity test on T-Jurkat cell line; type: cell-based, human; conditions: for IC50: Homo sapiens, T-Jurkat, 48 h, viability, mean ± SD, read-out: Relative IC50 T-Jurkat (XTT); for IS internal selectivity (IC50 PBMCs / IC50 T-Jurkat): ratio between XTT IC50 values for PBMCs and T-Jurkat cell line
Protocol: as §1
Biological evaluation — PBMC and T-Jurkat cells
The T-Jurkat cell line (Clone E6-1, ATCC TIB-152), derived from a human acute T-cell leukemia, was obtained from the cell bank of the Department of Medical Immunology at the Medical University of Gdańsk. Before experimentation, the cells were thawed and cultured for about 7 days to reach the logarithmic phase of growth. The T-Jurkat cell line was suspended in a complete RPMI medium, which included RPMI-1640, 10% FBS, penicillin (100 U/ml), and streptomycin ([…]).
as §2, §3, §4, §5, §6, §7, §8, §9
PBMCs were suspended in a 15 mL centrifuge tube at a concentration of 10-30 × 10⁶ cells in 1 mL of PBS, then, 2 μL of 1 mM VPD 450 dye solution was added, incubated for 15 min at 37°C, washed with a 9-fold volume of warm PBS and centrifuged at 400 x g for 5 min. Then, the cells were suspended […]

Row | SMILES | IC50 [1] [µM] | IC50 [2] [µM] | IS internal selectivity (IC50 PBMCs / IC50 T-Jurkat) [2]
1 | COc1c(C)c2c(c(O)c1C/C=C(\C)CCC(=O)OCCN1CCOCC1)C(=O)OC2 [MMF, mycophenolate mofetil, reference compound] | 16.61 ± 0.041 | 0.74 ± 0.034 | 22.456
2 | COc1ccccc1OC(=O)CC/C(C)=C/Cc1c(O)c2c(c(C)c1OC)COC2=O [MP1] | 14.78 ± 0.016 | 0.982 ± 0.005 | 15.051
3 | COc1cccc(OC)c1OC(=O)CC/C(C)=C/Cc1c(O)c2c(c(C)c1OC)COC2=O [MP2] | 22.52 ± 0.039 | 1.748 ± 0.006 | 12.883
4 | COc1cc(C=O)cc(OC)c1OC(=O)CC/C(C)=C/Cc1c(O)c2c(c(C)c1OC)COC2=O [MP3] | 10.59 ± 0.04 | 4.443 ± 0.007 | 2.383
5 | COc1cc(C=O)ccc1OC(=O)CC/C(C)=C/Cc1c(O)c2c(c(C)c1OC)COC2=O [MP4] | 23.484 ± 0.015 | 5.33 ± 0.005 | 4.406
6 | COC(=O)/C=C/c1ccc(OC(=O)CC/C(C)=C/Cc2c(O)c3c(c(C)c2OC)COC3=O)c(OC)c1 [MP7] | 30.43 ± 0.044 | 1.406 ± 0.004 | 21.645
7 | C=CCc1ccc(OC(=O)CC/C(C)=C/Cc2c(O)c3c(c(C)c2OC)COC3=O)c(OC)c1 [MP8] | 17.782 ± 0.011 | 1.705 ± 0.002 | 10.429
8 | C/C=C/c1ccc(OC(=O)CC/C(C)=C/Cc2c(O)c3c(c(C)c2OC)COC3=O)c(OC)c1 [MP9] | 21.153 ± 0.015 | 1.964 ± 0.002 | 10.770
9 | COc1c(C)c2c(c(O)c1C/C=C(\C)CCC(=O)O)C(=O)OC2 [MPA, Mycophenolic acid] | 18.73 ± 0.03 | 0.527 ± 0.04 | 35.558
10 | COc1c(C)c2c(c(O)c1C/C=C(\C)CCC(=O)Oc1ccc3c(c1)OCO3)C(=O)OC2 [P1] | 125.48 ± 0.025 | 1.073 ± 0.002 | 116.938
11 | COc1c(C)c2c(c(O)c1C/C=C(\C)CCC(=O)Oc1cc(C)ccc1C(C)C)C(=O)OC2 [P2] | 16.349 ± 0.01 | 2.473 ± 0.004 | 6.611
12 | COC(=O)/C=C/c1ccccc1OC(=O)CC/C(C)=C/Cc1c(O)c2c(c(C)c1OC)COC2=O [P4] | 25.887 ± 0.017 | 1.658 ± 0.003 | 15.613
13 | COc1c(C)c2c(c(O)c1C/C=C(\C)CCC(=O)Oc1ccc(C=O)cc1)C(=O)OC2 [P5] | 9.948 ± 0.046 | 1.582 ± 0.003 | 6.288
14 | COc1c(C)c2c(c(O)c1C/C=C(\C)CCC(=O)Oc1ccc(CCC(C)=O)cc1)C(=O)OC2 [P7] | 50.294 ± 0.019 | 2.41 ± 0.002 | 20.869

Source: publication PMC12271471, “Direct synthesis of mycophenolic acid aryl esters with antioxidant and antiproliferative properties” (Scientific Reports, 2025)
